Results on 16 compounds are retold here after US9499550B2 (BRISTOL-MYERS SQUIBB COMPANY, priority 2012, dated 2016).

Experiment [1] concerns HCV genotype 1a (H77 strain) replicon in HUH-7 cells. Briefly: HCV replicon luciferase reporter assay, genotype 1a. The experiment is classed as cell-based. Particulars: Hepatitis C virus, Huh-7, 72 h, HCV genotype 1a replicon luciferase, 3 days incubation, read-out: LE_1a (EC50, range). The gist of the method: (§1)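 Replicon inhibition for both genotypes was measured as Renilla luciferase signal (EnduRen, 7.5 μM final, 2 h) after 3-day, 37° C exposure of replicon-bearing HUH-7 cells in 4% FCS DMEM, 0.5% DMSO. The 1b construct carries S1179I; the 1a H77 construct carries P1496L and S2204I. Twenty-point, 3-fold dilutions were fitted four-parametrically for EC50, and CC50 was taken from multiplexed Cell Titer-Blue.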

Experiment [2] has as its system HCV genotype 1b (Con1) replicon in HUH-7 cells. Briefly: HCV replicon luciferase reporter assay, genotype 1b. The experiment is classed as cell-based. The following applies: Hepatitis C virus, Huh-7, 72 h, HCV genotype 1b replicon luciferase, 3 days incubation, read-out: LE_1b (EC50, range). The gist of the method: as §1

Like-named read-outs stand apart in the source and are kept apart here.

A word on the EC50: it is the concentration at which the effect is half-maximal.

In the case of `CCOc1cnc(O[C@@H]2C[C@H]3C(=O)N[C@]4(C(=O)NS(=O)(=O)C5(CF)CC5)C[C@H]4/C=C\CC[C@@H](C)C[C@@H](C)[C@H](NC(=O)OC(C)(C)C(F)(F)F)C(=O)N3C2)c2ccc(OC)cc12` [Compound 4104], the EC50 in experiment [1] (GETYPE1A) and in experiment [2] (GETYPE1B) was less than 5.46 nM throughout.

As for `CCOc1cnc(O[C@@H]2C[C@H]3C(=O)N[C@]4(C(=O)NS(=O)(=O)C5(CF)CC5)C[C@H]4/C=C\CC[C@@H](C)C[C@@H](C)[C@H](NC(=O)OC(C)(C)C)C(=O)N3C2)c2ccc(OC)cc12` [Compound 4105, tert-butyl (2R,6S,7R,9R,13aS,14aR,16aS,Z)-2-(4-ethoxy-6-methoxyisoquinolin-1-yloxy)-14a-(1-(fluoromethyl)cyclopropylsulfonylcarbamoyl)-7,9-dimethyl-5,16-dioxo-1,2,3,5,6,7,8,9,10,11,13a,14,14a,15,16,16a-hexadecahydrocyclopropa[e]pyrrolo[1,2-a][1,4]diazacyclopentadecin-6-ylcarbamate], the EC50 in experiment [1] and in experiment [2] was less than 5.46 nM in each case.

As to `COc1ccc2c(O[C@@H]3C[C@H]4C(=O)N[C@]5(C(=O)NS(=O)(=O)C6(C)CC6)C[C@H]5/C=C\CC[C@@H](C)C[C@@H](C)[C@H](NC(=O)OC(C)(C)C(F)(F)F)C(=O)N4C3)ncc(OC(=O)OC(C)(C)C(F)(F)F)c2c1` [Compound 4106], the EC50 in experiment [1] (GETYPE1A) and in experiment [2] (GETYPE1B) was 4.82 to 103 nM each time.

Turning to `COc1ccc2nc(O[C@@H]3C[C@H]4C(=O)N[C@]5(C(=O)NS(=O)(=O)C6(CF)CC6)C[C@H]5/C=C\CC[C@@H](C)C[C@@H](C)[C@H](NC(=O)OC(C)(C)C(F)(F)F)C(=O)N4C3)c(C)nc2c1` [Compound 4107], the EC50 in experiment [1] (GETYPE1A) and in experiment [2] (GETYPE1B) was less than 5.46 nM throughout.

`COc1ccc2nc(C)c(O[C@@H]3C[C@H]4C(=O)N[C@]5(C(=O)NS(=O)(=O)C6(CF)CC6)C[C@H]5/C=C\CC[C@@H](C)C[C@@H](C)[C@H](NC(=O)OC(C)(C)C(F)(F)F)C(=O)N4C3)nc2c1` [Compound 4108]: the EC50 in experiment [1] (GETYPE1A) and in experiment [2] (GETYPE1B) was less than 5.46 nM in each case.

For the compound `COc1ccc2nc(C)c(O[C@@H]3C[C@H]4C(=O)N[C@]5(C(=O)NS(=O)(=O)C6(C)CC6)C[C@H]5/C=C\CC[C@@H](C)C[C@@H](C)[C@H](NC(=O)OC(C)(C)C)C(=O)N4C3)nc2c1` [Compound 4109, tert-butyl (2R,6S,7R,9R,13aS,14aR,16aS,Z)-2-(7-methoxy-3-methylquinoxalin-2-yloxy)-7,9-dimethyl-14a-(1-methylcyclopropylsulfonylcarbamoyl)-5,16-dioxo-1,2,3,5,6,7,8,9,10,11,13a,14,14a,15,16,16a-hexadecahydrocyclopropa[e]pyrrolo[1,2-a][1,4]diazacyclopentadecin-6-ylcarbamate], the EC50 in experiment [1] and in experiment [2] was less than 5.46 nM throughout.

Take `COc1cnc(O[C@@H]2C[C@H]3C(=O)N[C@]4(C(=O)NS(=O)(=O)C5(CO)CC5)C[C@H]4/C=C\CC[C@@H](C)C[C@@H](C)[C@H](NC(=O)OC(C)(C)C(F)(F)F)C(=O)N3C2)c2ccccc12` [Compound 4110]: the EC50 in experiment [1] (GETYPE1A) and in experiment [2] (GETYPE1B) was 4.82 to 103 nM throughout.

On to `COc1cnc(O[C@@H]2C[C@H]3C(=O)N[C@]4(C(=O)NS(=O)(=O)C5(CO)CC5)C[C@H]4/C=C\CC[C@H](C)C[C@@H](C)[C@H](NC(=O)OC(C)(C)C(F)(F)F)C(=O)N3C2)c2ccccc12` [Compound 4111], for which the EC50 in experiment [1] (GETYPE1A) was greater than 87.4 nM; in experiment [2] (GETYPE1B), 4.82 to 103 nM.

For `COc1cnc(O[C@@H]2C[C@H]3C(=O)N[C@]4(C(=O)NS(=O)(=O)C5(CO)CC5)C[C@H]4/C=C\CC[C@@H](C)C[C@@H](C)[C@H](N)C(=O)N3C2)c2ccccc12` [Compound 4112, (2R,6S,7R,9R,13aS,14aR,16aS,Z)-6-amino-N-(1-(hydroxymethyl)cyclopropylsulfonyl)-2-(4-methoxyisoquinolin-1-yloxy)-7,9-dimethyl-5,16-dioxo-1,2,3,5,6,7,8,9,10,11,13a,14,14a,15,16,16a-hexadecahydrocyclopropa[e]pyrrolo[1,2-a][1,4]diazacyclopentadecine-14a-carboxamide], the EC50 in experiment [1] and in experiment [2] was greater than 87.4 nM throughout.

Regarding `COc1cnc(O[C@@H]2C[C@H]3C(=O)N[C@]4(C(=O)NS(=O)(=O)C5(CO)CC5)C[C@H]4/C=C\CC[C@H](C)C[C@@H](C)[C@H](N)C(=O)N3C2)c2ccccc12` [Compound 4113, (2R,6S,7R,9S,13aS,14aR,16aS,Z)-6-amino-N-(1-(hydroxymethyl)cyclopropylsulfonyl)-2-(4-methoxyisoquinolin-1-yloxy)-7,9-dimethyl-5,16-dioxo-1,2,3,5,6,7,8,9,10,11,13a,14,14a,15,16,16a-hexadecahydrocyclopropa[e]pyrrolo[1,2-a][1,4]diazacyclopentadecine-14a-carboxamide], the EC50 in experiment [1] and in experiment [2] was greater than 87.4 nM in each case.

On to `COc1cnc(O[C@@H]2C[C@H]3C(=O)N[C@]4(C(=O)NS(=O)(=O)C5(CO)CC5)C[C@H]4/C=C\CC[C@@H](C)C[C@@H](C)[C@H](NC(=O)OC(C)(C)C)C(=O)N3C2)c2ccccc12` [Compound 4114, tert-butyl (2R,6S,7R,9R,13aS,14aR,16aS,Z)-14a-(1-(hydroxymethyl)cyclopropylsulfonylcarbamoyl)-2-(4-methoxyisoquinolin-1-yloxy)-7,9-dimethyl-5,16-dioxo-1,2,3,5,6,7,8,9,10,11,13a,14,14a,15,16,16a-hexadecahydrocyclopropa[e]pyrrolo[1,2-a][1,4]diazacyclopentadecin-6-ylcarbamate], for which the 50% effective concentration (EC50) in experiment [1] and in experiment [2] was 4.82 to 103 nM in each case.

Turning to `COc1cnc(O[C@@H]2C[C@H]3C(=O)N[C@]4(C(=O)NS(=O)(=O)C5(CO)CC5)C[C@H]4/C=C\CC[C@H](C)C[C@@H](C)[C@H](NC(=O)OC(C)(C)C)C(=O)N3C2)c2ccccc12` [Compound 4115, tert-butyl (2R,6S,7R,9S,13aS,14aR,16aS,Z)-14a-(1-(hydroxymethyl)cyclopropylsulfonylcarbamoyl)-2-(4-methoxyisoquinolin-1-yloxy)-7,9-dimethyl-5,16-dioxo-1,2,3,5,6,7,8,9,10,11,13a,14,14a,15,16,16a-hexadecahydrocyclopropa[e]pyrrolo[1,2-a][1,4]diazacyclopentadecin-6-ylcarbamate], the half-maximal effective concentration (EC50) in experiment [1] and in experiment [2] was less than 5.46 nM each time.

As to `COc1cc2c(OC)cnc(O[C@@H]3C[C@H]4C(=O)N[C@]5(C(=O)NS(=O)(=O)C6(CF)CC6)C[C@H]5/C=C\CC[C@@H](C)C[C@@H](C)[C@H](NC(=O)C(C)(C)C)C(=O)N4C3)c2cc1F` [Compound 4116, (2R,6S,7R,9R,13aS,14aR,16aS,Z)-2-(7-fluoro-4,6-dimethoxyisoquinolin-1-yloxy)-N-(1-(fluoromethyl)cyclopropylsulfonyl)-7,9-dimethyl-5,16-dioxo-6-pivalamido-1,2,3,5,6,7,8,9,10,11,13a,14,14a,15,16,16a-hexadecahydrocyclopropa[e]pyrrolo[1,2-a][1,4]diazacyclopentadecine-14a-carboxamide], the EC50 in experiment [1] and in experiment [2] was less than 5.46 nM throughout.

For `COc1cc2c(OC)cnc(O[C@@H]3C[C@H]4C(=O)N[C@]5(C(=O)NS(=O)(=O)C6(CF)CC6)C[C@H]5/C=C\CC[C@@H](C)C[C@@H](C)[C@H](NC(=O)c5c(F)cc(F)cc5F)C(=O)N4C3)c2cc1F` [Compound 4117, (2R,6S,7R,9R,13aS,14aR,16aS,Z)-2-(7-fluoro-4,6-dimethoxyisoquinolin-1-yloxy)-N-(1-(fluoromethyl)cyclopropylsulfonyl)-7,9-dimethyl-5,16-dioxo-6-(2,4,6-trifluorobenzamido)-1,2,3,5,6,7,8,9,10,11,13a,14,14a,15,16,16a-hexadecahydrocyclopropa[e]pyrrolo[1,2-a][1,4]diazacyclopentadecine-14a-carboxamide], the EC50 in experiment [1] and in experiment [2] was less than 5.46 nM in each case.

As to `COc1cc2c(OC)cnc(O[C@@H]3C[C@H]4C(=O)N[C@]5(C(=O)NS(=O)(=O)C6(CF)CC6)C[C@H]5/C=C\CC[C@@H](C)C[C@@H](C)[C@H](NC(=O)c5ccc(F)cc5F)C(=O)N4C3)c2cc1F` [Compound 4118, (2R,6S,7R,9R,13aS,14aR,16aS,Z)-6-(2,4-difluorobenzamido)-2-(7-fluoro-4,6-dimethoxyisoquinolin-1-yloxy)-N-(1-(fluoromethyl)cyclopropylsulfonyl)-7,9-dimethyl-5,16-dioxo-1,2,3,5,6,7,8,9,10,11,13a,14,14a,15,16,16a-hexadecahydrocyclopropa[e]pyrrolo[1,2-a][1,4]diazacyclopentadecine-14a-carboxamide], the EC50 in experiment [1] and in experiment [2] was less than 5.46 nM each time.

Consider `COc1cc2c(OC)cnc(O[C@@H]3C[C@H]4C(=O)N[C@]5(C(=O)NS(=O)(=O)C6(CF)CC6)C[C@H]5/C=C\CC[C@@H](C)C[C@@H](C)[C@H](NC(=O)C5(C(F)(F)F)CC5)C(=O)N4C3)c2cc1F` [Compound 4119, (2R,6S,7R,9R,13aS,14aR,16aS,Z)-2-(7-fluoro-4,6-dimethoxyisoquinolin-1-yloxy)-N-(1-(fluoromethyl)cyclopropylsulfonyl)-7,9-dimethyl-5,16-dioxo-6-(1-(trifluoromethyl)cyclopropanecarboxamido)-1,2,3,5,6,7,8,9,10,11,13a,14,14a,15,16,16a-hexadecahydrocyclopropa[e]pyrrolo[1,2-a][1,4]diazacyclopentadecine-14a-carboxamide], for which the EC50 in experiment [1] and in experiment [2] was less than 5.46 nM each time.
